Test results as given in ChEMBL document CHEMBL4706505, “F10, a new camptothecin derivative, was identified as a new orally-bioavailable, potent antitumor agent” (Eur J Med Chem, 2020).

Columns and labels:
A549 = test: Cytotoxicity against human A549 assessed as reduction in cell viability measured after 72 hrs by MTT assay; type: functional, cell-based; conditions: A549, 72 h
HCT-116 [1] = test: Cytotoxicity against human HCT-116 assessed as reduction in cell viability measured after 72 hrs by MTT assay; type: functional, cell-based; conditions: HCT-116, 72 h
LoVo = test: Cytotoxicity against human LoVo assessed as reduction in cell viability measured after 72 hrs by MTT assay; type: functional, cell-based
COLO 205 = test: Cytotoxicity against human COLO 205 assessed as reduction in cell viability measured after 72 hrs by MTT assay; type: functional, cell-based; conditions: COLO 205, 72 h
Raji [2] = test: Cytotoxicity against human Raji assessed as reduction in cell viability measured after 72 hrs by MTT assay; type: functional, cell-based
HeLa = test: Cytotoxicity against human Hela assessed as reduction in cell viability measured after 72 hrs by MTT assay; type: functional, cell-based
NCI-H1975 = test: Cytotoxicity against human NCI-H1975 assessed as reduction in cell viability measured after 72 hrs by MTT assay; type: functional, cell-based; conditions: NCI-H1975, 72 h
HCT-116 [3] = test: Induction of apoptosis in human HCT-116 cells assessed as early apoptotic cells level at 0.001 uM incubated for 24 hrs by Annexin V-FITC/PI staining based flow cytometry (reference value: 0.17%); type: functional
HCT-116 [4] = test: Induction of apoptosis in human HCT-116 cells assessed as late apoptotic cells level at 0.03 uM incubated for 24 hrs by Annexin V-FITC/PI staining based flow cytometry (reference value: 0.07%); type: functional
HCT-116 [5] = test: Induction of apoptosis in human HCT-116 cells assessed as early apoptotic cells level at 0.03 uM incubated for 24 hrs by Annexin V-FITC/PI staining based flow cytometry (reference value: 0.17%); type: functional
HCT-116 [6] = test: Induction of apoptosis in human HCT-116 cells assessed as late apoptotic cells level at 1 uM incubated for 24 hrs by Annexin V-FITC/PI staining based flow cytometry (reference value: 0.07%); type: functional
[7] = Toxicity in NPG mouse xenografted with human Raji cells assessed as body weight loss at 2 mg/kg, ip measured on the day 1; type: organism-based; conditions: in vivo
HCT-116 [8] = test: Antitumor activity against human HCT-116 cells xenografted in nude BALB/c mouse assessed as tumor growth inhibition at 1 mg/kg, ip dosed once the other day for 24 days; type: functional; conditions: HCT-116, ip, 576 h, time 24 day, read-out: TGI
[9] = Toxicity in NPG mouse xenografted with human Raji cells assessed as body weight loss at 4 mg/kg, ig measured on the 1 day; type: organism-based; conditions: in vivo, po, 24 h
[10] = Toxicity in NPG mouse xenografted with human Raji cells assessed as body weight loss at 2 mg/kg, ip measured after 5 day; type: organism-based; conditions: in vivo, 120 h
[11] = Toxicity in NPG mouse xenografted with human Raji cells assessed as body weight loss at 4 mg/kg, ip measured after 5 day; type: organism-based; conditions: in vivo, 120 h
[12] = Toxicity in NPG mouse xenografted with human Raji cells assessed as body weight loss at 4 mg/kg, ig measured after 5 day; type: organism-based; conditions: in vivo, po, 120 h
HCT-116 [13] = test: Antitumor activity against human HCT-116 cells xenografted in nude BALB/c mouse assessed as tumor growth inhibition at 0.5 mg/kg, ip dosed once the other day for 24 days; type: functional; conditions: HCT-116, ip, 576 h, time 24 day, read-out: TGI
Raji [14] = test: Antitumor activity against NPG mouse xenografted with human Raji cell assessed as decrease in tumor volume at 2 mg/kg, ip measured on the 1 day; type: functional
Raji [15] = test: Antitumor activity against NPG mouse xenografted with human Raji cell assessed as decrease in tumor volume at 4 mg/kg, ip measured on the 1 day; type: functional
Raji [16] = test: Antitumor activity against NPG mouse xenografted with human Raji cell assessed as decrease in tumor volume at 4 mg/kg, ig measured on the 1 day; type: functional
Raji [17] = test: Antitumor activity against NPG mouse xenografted with human Raji cell assessed as decrease in tumor volume at 2 mg/kg, ip measured after 5 day; type: functional
Raji [18] = test: Antitumor activity against NPG mouse xenografted with human Raji cell assessed as decrease in tumor volume at 4 mg/kg, ip measured after 5 day; type: functional
Raji [19] = test: Antitumor activity against NPG mouse xenografted with human Raji cell assessed as decrease in tumor volume at 8 mg/kg, ig measured after 5 day; type: functional
Raji [20] = test: Antitumor activity against NPG mouse xenografted with human Raji cell assessed as tumor growth inhibition at 2 mg/kg, ip measured after 5 day; type: functional; conditions: 120 h, read-out: TGI
Raji [21] = test: Antitumor activity against NPG mouse xenografted with human Raji cell assessed as tumor growth inhibition at 4 mg/kg, ip measured after 5 day; type: functional; conditions: 120 h, read-out: TGI
Raji [22] = test: Antitumor activity against NPG mouse xenografted with human Raji cell assessed as tumor growth inhibition at 8 mg/kg, ig measured after 5 day; type: functional; conditions: po, 120 h, read-out: TGI
[23] = Toxicity in Kunming mouse assessed as mortality at 60 mg/kg, iv measured once every 30 mins upto 10 days; type: organism-based; conditions: in vivo, 0.5 h
HCT-116 [24] = test: Antitumor activity against human HCT-116 cells xenografted in nude BALB/c mouse assessed as tumor growth inhibition at 0.2 mg/kg, ip dosed once the other day for 24 days; type: functional; conditions: HCT-116, ip, 576 h, time 24 day, read-out: TGI
[25] = Toxicity in Kunming mouse assessed as mortality at 30 mg/kg, iv measured once every 30 mins upto 10 days; type: organism-based; conditions: in vivo, 0.5 h
[26] = Toxicity in Kunming mouse assessed as mortality at 300 mg/kg ip measured once every 30 mins upto 10 days; type: organism-based; conditions: in vivo, 0.5 h
[27] = Toxicity in Kunming mouse assessed as mortality at 250 mg/kg, po measured once every 30 mins upto 10 days; type: organism-based; conditions: in vivo, 0.5 h
HCT-116 [28] = test: Antitumor activity against human HCT-116 cells xenografted in nude BALB/c mouse assessed as tumor growth inhibition at 2 mg/kg, po dosed once the other day for 12 times upto 24 days; type: functional; conditions: HCT-116, po, 576 h, time day <=24, read-out: TGI
[29] = Cmax in nude BALB/c mouse serum at 8.0 mg/kg incubated up to 9 hrs, iv administered […] by LC-MS/MS analysis; type: ADME, organism-based; design: route intravenous, dose 8 mg/kg, time <=9
[30] = Clearance in nude BALB/c mouse serum at 8.0 mg/kg incubated up to 9 hrs, iv administered […] by LC-MS/MS analysis; type: ADME, organism-based
[31] = AUC (0 to infinity) in nude BALB/c mouse serum at 8.0 mg/kg incubated up to 9 hrs, iv administered […] by LC-MS/MS analysis; type: ADME, organism-based; design: route intravenous, dose 8 mg/kg, time <=9; conditions: in vivo
[32] = Half life in nude BALB/c mouse serum at 8.0 mg/kg incubated up to 9 hrs, po administered via gavage by LC-MS/MS analysis; type: ADME, organism-based
[33] = Cmax in nude BALB/c mouse serum at 8.0 mg/kg incubated up to 9 hrs, po administered via gavage by LC-MS/MS analysis; type: ADME, organism-based; design: route oral, dose 8 mg/kg, time <=9
[34] = Clearance in nude BALB/c mouse serum at 8.0 mg/kg incubated up to 9 hrs, po administered via gavage by LC-MS/MS analysis; type: ADME, organism-based
[35] = AUC (0 to infinity) in nude BALB/c mouse serum at 8.0 mg/kg incubated up to 9 hrs, po administered via gavage by LC-MS/MS analysis; type: ADME, organism-based; design: route oral, dose 8 mg/kg, time <=9; conditions: in vivo

CCc1c2c(nc3ccc(OCC(=O)N4CCCCC4)cc13)-c1cc3c(c(=O)n1C2)COC(=O)[C@]3(O)CC
IC50 (A549): 11 nM | IC50 (HCT-116 [1]): 3 nM | IC50 (LoVo): 81 nM | IC50 (COLO 205): 96 nM | IC50 (Raji [2]): 2 nM | IC50 (HeLa): 125 nM | IC50 (NCI-H1975): 84 nM | Activity (HCT-116 [3]): 4.92% | Activity (HCT-116 [4]): 10.73% | Activity (HCT-116 [5]): 7.55% | Activity (HCT-116 [6]): 6.4% | Activity [7]: 23.2 g | inhibition in vivo at 1 mg/kg (HCT-116 [8]): 90.2% | Activity [9]: 25.4 g | Activity [10]: 20.6 g | Activity [11]: 19.2 g | Activity [12]: 25.8 g | inhibition in vivo at 0.5 mg/kg (HCT-116 [13]): 92% | Activity (Raji [14]): 983 mm3 | Activity (Raji [15]): 1186 mm3 | Activity (Raji [16]): 900 mm3 | Activity (Raji [17]): 936 mm3 | Activity (Raji [18]): 729 mm3 | Activity (Raji [19]): 1374 mm3 | inhibition in vivo at 2 mg/kg (Raji [20]): 104% | inhibition in vivo at 4 mg/kg (Raji [21]): 136% | inhibition in vivo at 8 mg/kg (Raji [22]): 81.3% | Activity [23]: Non-Toxic | inhibition in vivo at 0.2 mg/kg (HCT-116 [24]): 71.8% | Activity [25]: Non-Toxic | Activity [26]: Non-Toxic | Activity [27]: Non-Toxic | inhibition in vivo at 2 mg/kg (HCT-116 [28]): 79.6% | Cmax [29]: 1630 ng/mL | clearance [30]: 0.179 mL/min | AUC [31]: 748.96 h/ng/mL | half-life [32]: 1.46 h | Cmax [33]: 332 ng/mL | CL/F [34]: 0.794 mL/min | AUC [35]: 168.07 h/ng/mL
